Measured values as given in the NIST ThermoML archive (doi:10.1021/je2008445).
± gives the expanded uncertainty stated by the source.

Key:
[1] = Liquid, Ebulliometric method (Recirculating still)
[2] = refractive index (Na D-line) (dimensionless); conditions: 298.15 K; 101.33 kPa; Liquid; Standard Abbe refractometry

Row | vapor or sublimation pressure ([1]; 372.73 K) | SMILES | vapor or sublimation pressure ([1]; 350.23 K) | refractive index [2]
1 | – | CCOC(C)=O [ethyl acetate] | 101.33 ± 1.6 kPa | 1.3712 ± 0.0005
2 | 101.33 ± 1.6 kPa | C[Si](C)(C)O[Si](C)(C)C [hexamethyldisiloxane] | – | 1.3737 ± 0.0005
